Values belong to the molecule of their own block, whether it stands above or below them. Activity calls are given as the source filed them.
Legend:
[1] = test system: Escherichia coli; test: microbe, parasite or virus in culture
[2] = target: Intestinal-type alkaline phosphatase (Mus musculus, UniProt P24822); test: PubChem AID 488785; type: functional
[3] = target: T1, Alkaline phosphatase, tissue-nonspecific isozyme (Homo sapiens, UniProt P05186); test: TNAP enzyme inhibition by screening hits, dose response, selectivity assay for mouse IAP inhibitor project, biochemical, human TNAP, uHTS hits (AID 488906); type: functional
T1 sequence (P05186 whole entry): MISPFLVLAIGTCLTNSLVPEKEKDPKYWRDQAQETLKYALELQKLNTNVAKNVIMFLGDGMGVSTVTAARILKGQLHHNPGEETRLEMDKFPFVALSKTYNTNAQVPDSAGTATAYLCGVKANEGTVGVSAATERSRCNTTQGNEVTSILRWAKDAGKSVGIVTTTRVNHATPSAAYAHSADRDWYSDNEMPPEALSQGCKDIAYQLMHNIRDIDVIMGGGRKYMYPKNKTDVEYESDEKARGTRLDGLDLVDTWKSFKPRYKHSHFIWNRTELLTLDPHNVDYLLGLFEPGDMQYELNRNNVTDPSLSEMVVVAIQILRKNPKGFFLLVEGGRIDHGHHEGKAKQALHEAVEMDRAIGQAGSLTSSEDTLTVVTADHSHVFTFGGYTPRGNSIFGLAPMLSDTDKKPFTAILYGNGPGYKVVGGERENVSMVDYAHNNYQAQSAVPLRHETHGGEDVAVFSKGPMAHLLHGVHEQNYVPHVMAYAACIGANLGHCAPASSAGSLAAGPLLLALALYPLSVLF

[4] = target: Intestinal-type alkaline phosphatase (Homo sapiens, UniProt P09923); test: inhibition of human intestinal alkaline phosphatase – biochemical, dose response (AID 488876); type: functional
Sequence of Intestinal-type alkaline phosphatase (Homo sapiens, UniProt P09923) (P09923 whole entry): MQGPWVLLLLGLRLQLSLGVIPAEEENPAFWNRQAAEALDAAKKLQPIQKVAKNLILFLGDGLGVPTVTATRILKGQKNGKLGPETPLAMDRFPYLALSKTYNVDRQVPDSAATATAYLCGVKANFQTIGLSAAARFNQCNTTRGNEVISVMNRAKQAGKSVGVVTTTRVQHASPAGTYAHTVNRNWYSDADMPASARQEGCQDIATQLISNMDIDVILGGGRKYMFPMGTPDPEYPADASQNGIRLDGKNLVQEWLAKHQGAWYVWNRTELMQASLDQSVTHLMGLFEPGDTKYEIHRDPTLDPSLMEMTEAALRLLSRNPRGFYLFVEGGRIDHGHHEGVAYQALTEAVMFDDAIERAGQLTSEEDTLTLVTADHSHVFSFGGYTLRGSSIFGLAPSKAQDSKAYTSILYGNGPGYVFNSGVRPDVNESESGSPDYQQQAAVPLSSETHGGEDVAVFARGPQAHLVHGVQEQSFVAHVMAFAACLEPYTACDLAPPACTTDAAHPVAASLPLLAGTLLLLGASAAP

[5] = target: T2, Small ubiquitin-related modifier 1 (Homo sapiens, UniProt P63165); test: inhibitors of SUMO1 peptide binding, dose response, biochemical, fluorescence polarization, uHTS hits (AID 624382); type: functional; conditions: read-out: IC50_Mean
T2 sequence (P63165 whole entry): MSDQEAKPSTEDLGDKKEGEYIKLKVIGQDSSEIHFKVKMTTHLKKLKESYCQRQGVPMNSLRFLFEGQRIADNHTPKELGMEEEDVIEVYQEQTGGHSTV

[6] = target: T2, Small ubiquitin-related modifier 1; test: inhibitors of SUMO1 partner interactions, dose response, biochemical, FRET (AID 624383); type: functional; conditions: read-out: IC50_Mean
[7] = target: T3, Sentrin-specific protease 8 (Homo sapiens, UniProt Q96LD8); type: functional
T3 sequence (Q96LD8 whole entry): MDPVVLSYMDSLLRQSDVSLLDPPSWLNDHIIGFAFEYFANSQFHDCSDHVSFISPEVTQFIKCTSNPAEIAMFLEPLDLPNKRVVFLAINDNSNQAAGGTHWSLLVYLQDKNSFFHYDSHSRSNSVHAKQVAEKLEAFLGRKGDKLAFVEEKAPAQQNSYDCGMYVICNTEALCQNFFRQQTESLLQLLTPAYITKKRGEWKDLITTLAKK

[8] = target: T3, Sentrin-specific protease 8; type: functional; remark: listed apart in the source
[9] = target: T4, Hexokinase HKDC1 (Homo sapiens, UniProt Q2TB90); test: HKDC1 hexokinase activators, dose response, biochemical, W721R variant (AID 504730); type: functional
T4 sequence (Q2TB90 whole entry): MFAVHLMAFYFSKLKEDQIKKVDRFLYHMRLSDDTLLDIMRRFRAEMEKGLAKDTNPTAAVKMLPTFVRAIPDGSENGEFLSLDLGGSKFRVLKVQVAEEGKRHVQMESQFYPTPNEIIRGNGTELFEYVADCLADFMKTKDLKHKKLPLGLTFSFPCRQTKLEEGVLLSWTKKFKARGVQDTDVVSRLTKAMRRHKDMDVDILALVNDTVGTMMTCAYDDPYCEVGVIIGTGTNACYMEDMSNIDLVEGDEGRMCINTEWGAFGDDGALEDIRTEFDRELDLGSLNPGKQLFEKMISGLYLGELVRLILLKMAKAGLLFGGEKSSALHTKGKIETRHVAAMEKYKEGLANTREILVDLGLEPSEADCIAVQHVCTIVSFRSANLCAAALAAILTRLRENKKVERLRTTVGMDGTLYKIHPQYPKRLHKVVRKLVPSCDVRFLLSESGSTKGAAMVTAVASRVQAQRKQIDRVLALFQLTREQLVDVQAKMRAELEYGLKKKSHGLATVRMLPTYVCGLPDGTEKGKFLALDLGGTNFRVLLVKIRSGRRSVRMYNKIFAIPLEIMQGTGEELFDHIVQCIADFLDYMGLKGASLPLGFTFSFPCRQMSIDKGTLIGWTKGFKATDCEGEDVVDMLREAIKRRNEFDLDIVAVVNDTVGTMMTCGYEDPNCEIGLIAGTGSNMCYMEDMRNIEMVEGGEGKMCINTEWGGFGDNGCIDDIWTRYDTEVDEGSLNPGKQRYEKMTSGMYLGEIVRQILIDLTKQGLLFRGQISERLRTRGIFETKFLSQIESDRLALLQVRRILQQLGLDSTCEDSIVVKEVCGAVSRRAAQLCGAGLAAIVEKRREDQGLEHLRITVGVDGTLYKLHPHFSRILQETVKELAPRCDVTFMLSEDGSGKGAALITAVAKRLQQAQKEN

[10] = target: T5, Hexokinase-1 (Homo sapiens, UniProt P19367); test: hexokinase 1 activators, dose response, selectivity assay for HKDC1 activator project, biochemical (AID 504762); type: functional
T5 sequence (P19367 whole entry): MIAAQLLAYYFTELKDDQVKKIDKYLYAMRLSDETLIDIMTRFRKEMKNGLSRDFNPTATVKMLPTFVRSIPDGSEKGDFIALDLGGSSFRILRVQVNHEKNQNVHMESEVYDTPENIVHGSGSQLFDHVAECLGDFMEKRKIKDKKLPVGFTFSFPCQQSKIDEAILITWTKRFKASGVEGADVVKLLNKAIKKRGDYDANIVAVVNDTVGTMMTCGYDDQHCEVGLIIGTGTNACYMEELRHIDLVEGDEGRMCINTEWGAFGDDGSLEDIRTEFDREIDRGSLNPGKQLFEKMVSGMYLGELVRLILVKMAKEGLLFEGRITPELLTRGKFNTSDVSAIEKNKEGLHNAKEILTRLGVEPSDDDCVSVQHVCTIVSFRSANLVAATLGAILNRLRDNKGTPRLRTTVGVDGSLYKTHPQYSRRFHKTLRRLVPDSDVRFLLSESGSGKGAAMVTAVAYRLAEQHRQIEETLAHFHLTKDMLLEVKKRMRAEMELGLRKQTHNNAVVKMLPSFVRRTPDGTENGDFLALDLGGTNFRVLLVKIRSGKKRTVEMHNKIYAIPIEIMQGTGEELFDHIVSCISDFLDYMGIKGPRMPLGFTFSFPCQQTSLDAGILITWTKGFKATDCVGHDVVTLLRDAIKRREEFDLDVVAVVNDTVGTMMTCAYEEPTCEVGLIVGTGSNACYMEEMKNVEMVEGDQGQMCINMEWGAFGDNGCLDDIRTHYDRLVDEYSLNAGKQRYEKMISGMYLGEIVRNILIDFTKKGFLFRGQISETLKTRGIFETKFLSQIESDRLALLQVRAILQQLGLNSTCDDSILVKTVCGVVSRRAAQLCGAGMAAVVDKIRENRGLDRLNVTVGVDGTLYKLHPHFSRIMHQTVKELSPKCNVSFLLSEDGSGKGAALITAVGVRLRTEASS

[11] = target: T3, Sentrin-specific protease 8; test: SENP8 protease inhibitors, SAR follow-up, biochemical, luminescence (AID 504501); type: functional
[12] = target: T6, Caspase-3 (Homo sapiens, UniProt P42574); test: SAR Analysis of small molecule inhibitors of Sentrin-specific proteases (SENPs) using a Caspase-3 Selectivity assay. [Related pubchem assays (depositor defined):AID2540, AID2599, AID434973, AID489001]; type: functional
T6 sequence (P42574 whole entry): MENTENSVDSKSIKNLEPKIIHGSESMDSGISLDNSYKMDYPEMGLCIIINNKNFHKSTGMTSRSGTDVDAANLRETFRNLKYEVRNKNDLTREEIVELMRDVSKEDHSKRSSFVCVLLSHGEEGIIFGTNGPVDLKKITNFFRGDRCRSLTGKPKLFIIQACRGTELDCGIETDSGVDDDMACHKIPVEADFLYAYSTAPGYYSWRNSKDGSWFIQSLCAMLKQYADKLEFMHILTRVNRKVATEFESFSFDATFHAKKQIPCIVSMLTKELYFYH

[13] = target: T7, Sentrin-specific protease 6 (Homo sapiens, UniProt Q9GZR1); test: SAR Analysis of small molecule inhibitors of Sentrin-specific protease 6 (SENP6) using a Luminescent assay. [Related pubchem assays (depositor defined):AID2582, AID2599]; type: functional
T7 sequence (Q9GZR1 whole entry): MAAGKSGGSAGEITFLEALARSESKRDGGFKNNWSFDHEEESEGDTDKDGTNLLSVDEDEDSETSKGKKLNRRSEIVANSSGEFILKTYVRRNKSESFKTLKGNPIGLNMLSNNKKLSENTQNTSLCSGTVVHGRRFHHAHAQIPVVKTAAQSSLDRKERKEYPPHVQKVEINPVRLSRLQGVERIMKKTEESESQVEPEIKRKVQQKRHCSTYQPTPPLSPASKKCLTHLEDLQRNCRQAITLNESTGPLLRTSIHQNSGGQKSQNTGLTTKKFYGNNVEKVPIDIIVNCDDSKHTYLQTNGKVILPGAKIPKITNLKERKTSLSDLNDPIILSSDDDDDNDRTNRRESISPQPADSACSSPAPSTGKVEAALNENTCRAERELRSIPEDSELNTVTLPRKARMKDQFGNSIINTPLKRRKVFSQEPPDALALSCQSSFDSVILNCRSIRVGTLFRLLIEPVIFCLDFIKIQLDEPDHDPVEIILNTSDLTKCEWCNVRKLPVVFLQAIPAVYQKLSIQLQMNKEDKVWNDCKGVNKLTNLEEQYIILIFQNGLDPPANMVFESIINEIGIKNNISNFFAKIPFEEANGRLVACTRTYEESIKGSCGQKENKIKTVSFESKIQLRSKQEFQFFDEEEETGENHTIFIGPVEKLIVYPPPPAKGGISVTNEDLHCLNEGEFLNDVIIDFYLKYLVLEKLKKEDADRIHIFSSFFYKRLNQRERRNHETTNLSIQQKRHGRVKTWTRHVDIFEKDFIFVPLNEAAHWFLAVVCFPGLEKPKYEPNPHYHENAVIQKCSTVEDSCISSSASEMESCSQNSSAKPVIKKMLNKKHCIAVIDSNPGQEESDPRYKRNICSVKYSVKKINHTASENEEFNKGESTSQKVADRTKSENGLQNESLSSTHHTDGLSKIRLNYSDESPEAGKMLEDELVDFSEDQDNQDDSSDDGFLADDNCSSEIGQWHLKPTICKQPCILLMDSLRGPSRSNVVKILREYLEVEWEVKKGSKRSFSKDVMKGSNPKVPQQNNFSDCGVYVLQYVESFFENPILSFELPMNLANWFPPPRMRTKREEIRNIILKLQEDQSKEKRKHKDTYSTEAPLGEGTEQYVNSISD

[14] = target: T8, Low molecular weight phosphotyrosine protein phosphatase (Homo sapiens, UniProt P24666); type: functional; conditions: read-out: IC50_Mean;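 further: Dose-response confirmation assay measuring inhibition of LMPTP enzyme activity by fluorescence intensity read-out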
T8 sequence (P24666 whole entry): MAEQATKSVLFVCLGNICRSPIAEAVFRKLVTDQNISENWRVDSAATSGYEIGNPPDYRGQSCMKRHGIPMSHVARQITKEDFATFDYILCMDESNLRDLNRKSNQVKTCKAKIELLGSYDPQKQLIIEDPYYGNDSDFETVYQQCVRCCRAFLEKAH

Sequence of Intestinal-type alkaline phosphatase (Mus musculus, UniProt P24822) (P24822 whole entry): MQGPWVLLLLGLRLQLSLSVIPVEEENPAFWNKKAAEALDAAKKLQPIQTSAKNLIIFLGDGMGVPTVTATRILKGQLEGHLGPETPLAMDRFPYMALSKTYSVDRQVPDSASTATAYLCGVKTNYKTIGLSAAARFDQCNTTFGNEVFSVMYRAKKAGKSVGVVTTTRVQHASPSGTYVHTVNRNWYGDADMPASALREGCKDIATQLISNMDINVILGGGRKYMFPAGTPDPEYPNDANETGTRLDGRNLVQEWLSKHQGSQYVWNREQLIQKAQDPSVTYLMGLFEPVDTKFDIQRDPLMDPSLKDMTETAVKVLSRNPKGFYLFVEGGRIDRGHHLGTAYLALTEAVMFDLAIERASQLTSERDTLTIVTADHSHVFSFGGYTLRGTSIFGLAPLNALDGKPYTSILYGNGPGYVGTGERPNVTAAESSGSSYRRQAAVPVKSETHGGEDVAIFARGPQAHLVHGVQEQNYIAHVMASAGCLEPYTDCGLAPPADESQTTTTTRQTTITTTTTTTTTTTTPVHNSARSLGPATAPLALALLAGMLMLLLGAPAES

Structure (SMILES): CCc1cc(Cl)c(OC)c(C(=O)NC[C@@H]2CCCN2CC)c1O
AC50 [1]: 19.4 µM (active)

Structure (SMILES): O=C(NC1CCCCC1)Oc1cc2oc(=O)sc2cc1Cl
IC50 [2]: 3.78 µM (active)
IC50 [3]: 11.8 µM (active)
IC50 [4]: 3.54 µM (active)

Structure (SMILES): COc1ccc(/C=C(/NC(=O)c2cccc([N+](=O)[O-])c2)C(=O)O)cc1OC
AC50 [1]: 18.5 µM (active)

Structure (SMILES): O=C(Nc1ccc2c(c1)C(=O)NC2=O)c1ccc2ncsc2c1
IC50 [5]: > 66.6 µM (inactive)
IC50 [6]: 8.45 µM (active)

Structure (SMILES): COc1c(F)c(F)cc2c(=O)c(C(=O)O)cn(C3CC3)c12
AC50 [1]: 3.88 µM (active)

Structure (SMILES): CCOC(=O)c1ccc(N2C(=O)Cc3ccccc3C2=O)cc1
IC50 [7]: > 100 µM (inactive)
IC50 [8]: 12 µM (active)

EC50 [9]: 23.9 µM (inactive)
EC50 [10]: 39.4 µM (inactive)
Structure (SMILES): COC(=O)c1c(NC(C)=O)sc(Cc2ccccc2)c1C

EC50 [9]: 10 µM (active)
EC50 [10]: 17.8 µM (active)
Structure (SMILES): Cc1ccc(C2=NN=C(Nc3ccc(F)cc3)SC2)cc1

Structure (SMILES): CC(=O)c1ccc(-n2nnnc2SCC(=O)N2CCc3ccccc3C2)cc1
IC50 [7]: 10.2 µM (active)
IC50 [8]: 8.03 µM (active)

IC50 [12]: 3.7 µM (active)
IC50 [13]: > 99 µM (inactive)
Structure (SMILES): COC(=O)c1ccc(NC(=O)c2ccc3c(c2)OCO3)cc1
IC50 [11]: > 99 µM (inactive)

IC50 [14]: 6.49 µM (active)
Structure (SMILES): Cc1cc(N2CCN(C(C(=O)NC3CCCC3)c3ccc(-c4ccccc4)cc3)CC2)c2ccccc2n1 (configuration not stated)

Structure (SMILES): C[N+](C)(CCCCCC[N+](C)(C)CCCN1C(=O)c2cccc3cccc(c23)C1=O)CCCN1C(=O)c2cccc3cccc(c23)C1=O
EC50 [9]: 20.4 µM (inactive)
EC50 [10]: 17.9 µM (active)
